Results reported in USRE47689E1, “Compounds for treating spinal muscular atrophy” (PTC Therapeutics, Inc., priority 2011, dated 2019).

Experiments:
[1] = tested on: SMN2 minigene (full length SMN2 minigene mRNA containing SMN2 exon 7); test: SMN2 minigene mRNA splicing RT-qPCR assay in cultured cells; assay type: cell-based, human; conditions: Homo sapiens, HEK293-H; HEK293H cells stably transfected with SMN2-A minigene; 24 hours; 7-point concentration curve; 1.5-fold relative to vehicle-treated cells; read-out: EC1.5x for production of full length SMN2 mRNA
Procedure, shortened: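 Full-length SMN2 minigene mRNA (exon 7 included), minigene-specific and not endogenous SMN, quantified by RT-qPCR multiplexed with GAPDH in stably transfected HEK293H cells after 24 h compound exposure at 37° C. Abundance from efficiency-corrected Ct, normalized to GAPDH and vehicle; EC1.5x reported as star bins.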

[2] = tested on: Smn protein; test: Smn protein assay in cultured cells (SMN HTRF); assay type: cell-based, human; conditions: 48 hours; for maximum fold (Fold) increase of Smn protein: SMA patient fibroblast cells, 7-point concentration data, fold increase relative to vehicle control (SMN HTRF); for EC1.5x (concentration giving 1.5-fold Smn protein increase): SMA Type 1 patient fibroblast cells (GM03813), 7-point concentration curve, SMN HTRF, concentration producing 1.5 times Smn protein vs DMSO vehicle control, read-out: EC1.5x for Smn protein expression
Procedure, shortened: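 Smn in SMA fibroblast lysates, measured by anti-SMN HTRF after 48 h compound exposure; EC1.5x from fold change over vehicle.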

| SMILES | melting point [°C] | EC (1.5-fold) [1] [µM] | maximum fold (Fold) increase of Smn protein [2] | EC1.5x (concentration giving 1.5-fold Smn protein increase) [2] [nM] |
| --- | --- | --- | --- | --- |
| O=c1oc2cc(N3CCCNCC3)ccc2cc1-c1cn2ccncc2n1 [Compound 454, 7-(1,4-diazepan-1-yl)-3-(imidazo[1,2-a]pyrazin-2-yl)-2H-chromen-2-one] | 247 to 249 | < 0.1 | *** (fold increase between >1.35 and ≤1.5) | 3000 to 10000 |
| CN1CCN(c2ccc3cc(-c4cn5cc(Cl)sc5n4)c(=O)oc3c2)CC1 [Compound 478, 3-(2-chloroimidazo[2,1-b][1,3]thiazol-6-yl)-7-(4-methylpiperazin-1-yl)-2H-chromen-2-one] | 268 to 270 | 0.3 to 1 | * (maximum fold increase of ≤1.2) | – |
| O=c1oc2cc(N3CCNCC3)cc(F)c2cc1-c1nc2ccccc2o1 [Compound 159, 3-(1,3-benzoxazol-2-yl)-5-fluoro-7-(piperazin-1-yl)-2H-chromen-2-one] | 245 to 250 | 0.3 to 1 | *** (fold increase between >1.35 and ≤1.5) | – |
| C[C@H]1CN(c2ccc3cc(-c4ccc(F)c(Cl)c4)c(=O)oc3c2)CCN1 [Compound 485, 3-(3-chloro-4-fluorophenyl)-7-[(3S)-3-methylpiperazin-1-yl]-2H-chromen-2-one] | 143 to 145 | 1 to 3 | * (maximum fold increase of ≤1.2) | – |
| CN1CCN(c2ccc3cc(-c4nc(-c5ccccc5)cs4)c(=O)oc3c2)CC1 [Compound 45, 7-(4-methylpiperazin-1-yl)-3-(4-phenyl-1,3-thiazol-2-yl)-2H-chromen-2-one] | 205 to 210 | 3 to 30 | * (maximum fold increase of ≤1.2) | – |
| Cc1cccn2cc(-c3cc4c(F)cc(N5CCN(C)CC5)cc4oc3=O)nc12 [Compound 423, 5-fluoro-3-(8-methylimidazo[1,2-a]pyridin-2-yl)-7-(4-methylpiperazin-1-yl)-2H-chromen-2-one] | 232 to 237 | 1 to 3 | * (maximum fold increase of ≤1.2) | – |
| Cc1cc(F)cn2cc(-c3cc4ccc(N5CCCN(C)CC5)cc4oc3=O)nc12 [Compound 330, 3-(6-fluoro-8-methylimidazo[1,2-a]pyridin-2-yl)-7-(4-methyl-1,4-diazepan-1-yl)-2H-chromen-2-one] | 191 to 198 | 0.3 to 1 | * (maximum fold increase of ≤1.2) | – |
| C[C@@H]1CN(c2ccc3cc(-c4nc5ccccc5o4)c(=O)oc3c2)C[C@H](C)N1 [Compound 23, 3-(1,3-benzoxazol-2-yl)-7-[(3R,5S)-3,5-dimethylpiperazin-1-yl]-2H-chromen-2-one] | 230 to 232 | 1 to 3 | * (maximum fold increase of ≤1.2) | – |
| C[C@@H]1CN[C@@H](C)CN1c1ccc2cc(-c3cn4ccc(C(F)(F)F)cc4n3)c(=O)oc2c1 [Compound 277, 7-[(2R,5S)-2,5-dimethylpiperazin-1-yl]-3-[7-(trifluoromethyl)imidazo[1,2-a]pyridin-2-yl]-2H-chromen-2-one] | 213 to 219 | 0.3 to 1 | * (maximum fold increase of ≤1.2) | – |
| C[C@@H]1CN(c2ccc3cc(-c4cn5cccc(Cl)c5n4)c(=O)oc3c2)C[C@H](C)N1C [Compound 137, 3-(8-chloroimidazo[1,2-a]pyridin-2-yl)-7-[(3R,5S)-3,4,5-trimethylpiperazin-1-yl]-2H-chromen-2-one] | 244 to 247 | 1 to 3 | *** (fold increase between >1.35 and ≤1.5) | – |

Continued, in another order:

| melting point [°C] | SMILES | EC (1.5-fold) [1] [µM] | maximum fold (Fold) increase of Smn protein [2] | EC1.5x (concentration giving 1.5-fold Smn protein increase) [2] [nM] |
| --- | --- | --- | --- | --- |
| 150 to 152 | Cc1cn2cc(-c3cc4ccc(N(C)C5CCN(Cc6ccccc6)C5)cc4oc3=O)nc2c(C)n1 (stereo not drawn) [Compound 616, 7-[(1-benzylpyrrolidin-3-yl)(methyl)amino]-3-(6,8-dimethylimidazo[1,2-a]pyrazin-2-yl)-2H-chromen-2-one] | 0.1 to 0.3 | ** (fold increase between >1.2 and ≤1.35) | – |
| 251 to 253 | Cc1nc(Cl)cn2cc(-c3cc4ccc(N5CCN(C)[C@@H](C)C5)cc4oc3=O)nc12 [Compound 727, 3-(6-chloro-8-methylimidazo[1,2-a]pyrazin-2-yl)-7-[(3S)-3,4-dimethylpiperazin-1-yl]-2H-chromen-2-one] | 0.1 to 0.3 | *** (fold increase between >1.35 and ≤1.5) | 1000 to 3000 |
| 251 to 253 | Cc1cn2cc(-c3cc4ccc(OCCN(C)C)cc4oc3=O)nc2c(C)n1 [Cpd 876, 7-[2-(dimethylamino)ethoxy]-3-(6,8-dimethylimidazo[1,2-a]pyrazin-2-yl)-2H-chromen-2-one] | < 0.1 | **** (fold increase between >1.5 and ≤1.65) | < 300 |
| 158 to 162 | Cc1cn2cc(-c3cc4ccc(CCCN(CCO)CCO)cc4oc3=O)nc2c(C)n1 [Compound 885, 7-{3-[bis(2-hydroxyethyl)amino]propyl}-3-(6,8-dimethylimidazo[1,2-a]pyrazin-2-yl)-2H-chromen-2-one] | 0.1 to 0.3 | ***** (fold increase >1.65) | 300 to 1000 |
| 243 to 245 | Cc1cc2cc(-c3cc4ccc(N5CCCN(C)CC5)cc4oc3=O)oc2c(C)n1 [Compound 775, 3-(5,7-dimethylfuro[2,3-c]pyridin-2-yl)-7-(4-methyl-1,4-diazepan-1-yl)-2H-chromen-2-one] | < 0.1 | **** (fold increase between >1.5 and ≤1.65) | < 300 |
| 236 to 242 | Cc1cc(F)c2nc(-c3cc4ccc(N5CCNC6(CCCC6)C5)cc4oc3=O)cn2c1 [Compound 599, 7-(6,9-diazaspiro[4.5]dec-9-yl)-3-(8-fluoro-6-methylimidazo[1,2-a]pyridin-2-yl)-2H-chromen-2-one] | 0.1 to 0.3 | *** (fold increase between >1.35 and ≤1.5) | – |
| 249 to 258 | Cc1cn2cc(-c3cc4ccc(N5C[C@@H]6CN(C(C)C)C[C@@H]6C5)cc4oc3=O)nc2c(C)n1 [Compound 743, 3-(6,8-dimethylimidazo[1,2-a]pyrazin-2-yl)-7-[(3aR,6aS)-5-(propan-2-yl)hexahydropyrrolo[3,4-c]pyrrol-2(1H)-yl]-2H-chromen-2-one] | < 0.1 | ***** (fold increase >1.65) | < 300 |
| 192 to 197 | Cc1cn2cc(-c3cc4ccc(CCNC(C)C)cc4oc3=O)nc2c(C)n1 [Compound 865, 3-(6,8-dimethylimidazo[1,2-a]pyrazin-2-yl)-7-[2-(propan-2-ylamino)ethyl]-2H-chromen-2-one] | < 0.1 | **** (fold increase between >1.5 and ≤1.65) | 1000 to 3000 |
| 270 to 274 | Cc1cn2cc(-c3cc4c(F)cc(N5CCCNCC5)cc4oc3=O)nc2cn1 [Compound 550, 7-(1,4-diazepan-1-yl)-5-fluoro-3-(6-methylimidazo[1,2-a]pyrazin-2-yl)-2H-chromen-2-one] | < 0.1 | **** (fold increase between >1.5 and ≤1.65) | < 300 |
| 190 to 192 | Cc1cn2cc(-c3cc4ccc(N5CCC(C)(N)CC5)cc4oc3=O)nc2c(C)n1 [Compound 920, 7-(4-amino-4-methylpiperidin-1-yl)-3-(6,8-dimethylimidazo[1,2-a]pyrazin-2-yl)-2H-chromen-2-one] | < 0.1 | ***** (fold increase >1.65) | < 300 |
| 195 to 198 | Cc1cn2cc(-c3cc4ccc(N5CC[C@H](N(C)C)C5)cc4oc3=O)cc2c(C)n1 [Compound 697, 7-[(3S)-3-(dimethylamino)pyrrolidin-1-yl]-3-(1,3-dimethylpyrrolo[1,2-a]pyrazin-7-yl)-2H-chromen-2-one] | < 0.1 | *** (fold increase between >1.35 and ≤1.5) | 300 to 1000 |
| 196 to 198 | CCN1CCC(c2ccc3cc(-c4ccc5nn(C)cc5c4)c(=O)oc3c2)CC1 [Compound 863, 7-(1-ethylpiperidin-4-yl)-3-(2-methyl-2H-indazol-5-yl)-2H-chromen-2-one] | 0.1 to 0.3 | ***** (fold increase >1.65) | 300 to 1000 |
| 282 to 292 | Cc1cn2cc(-c3cc4ccc(N5C[C@H]6CNC[C@H]6C5)cc4oc3=O)nc2cn1 [Compound 718, 7-[(3aR,6aS)-hexahydropyrrolo[3,4-c]pyrrol-2(1H)-yl]-3-(6-methylimidazo[1,2-a]pyrazin-2-yl)-2H-chromen-2-one] | < 0.1 | **** (fold increase between >1.5 and ≤1.65) | < 300 |
